# Source: patent US20230218559A1, “Compositions and Methods for Treating Aging and Age-Related Diseases and Symptoms” (The Regents of the University of California, priority 2014, published 2023)
# How the values were obtained:
# WI-38 cells = assay: Assay for ATP levels in normal human fibroblasts; type: cell-based; conditions: 2 hours
# Method: Normal human diploid fibroblast WI-38 (ATCC, CCL-75) cells were seeded in 96-well plates at 2×10^4 cells per well. […] ATP levels were measured using the CellTiter-Glo luminescent ATP assay (Promega, G7572); luminescence was read using Analyst HT (Molecular Devices). In parallel, identically treated cells were lysed in M-PER (Thermo Scientific, 78501) to obtain protein concentration by BCA Protein Assay kit (Pierce, 23223). ATP levels were normalized to protein content. Statistical analysis was performed using GraphPad Prism (unpaired t-test).
# Complex V = biological target: T1, Complex V (Bos taurus, UniProt P00829); assay: Complex V activity assay (MitoTox OXPHOS kit); type: biochemical, bovine
# T1 construct: from bovine heart mitochondria; purchased Abcam ab109907; host or cells: bovine heart mitochondria
# Method: Complex V activity was assayed using the MitoTox OXPHOS Complex V Activity Kit (Abcam, ab109907). Vehicle (H2O) or α-KG was mixed with the enzyme prior to the addition of phospholipids. […] Relative Complex V activity was compared to vehicle. Oligomycin (Sigma, O4876) was used as a positive control for the assay.
# DBA2/J female mice = assay: Isoproterenol-induced hypertrophy and heart failure in mice; type: in vivo, mouse; conditions: ISO plus octyl α-KG, 3 weeks, echocardiography; ISO+octanol 49.2%±1.9
# Method: Hypertrophy and heart failure were induced by chronic infusion of isoproterenol for 3 weeks at a dose of 30 μg per gram bodyweight per day using osmotic mini-pumps (Alzet, model 1004). DBA2/J female mice at 8 weeks old were used for this study. […] ISO-induced cardiac hypertrophy and cardiomyopathy were determined at the end of experiment by assessing heart size and heart to body weight ratio.
# More importantly, cardiac output was assessed and the cardiac ejection fractions were determined by echocardiography. The cardiac EF for the basal levels before the treatment is 55.1%±2.6 (n=14).
# AMPK = AMPK (T172) phosphorylation by Western blotting; type: cell-based, human; conditions: WI-38 cells; higher concentration of octyl α-KG
# Method: Western blotting was performed with specific antibodies against P-AMPK T172 (Cell Signaling Technology, 2535S) and AMPK (Cell Signaling Technology, 2603S). […] Number of GFP::LGG-1 containing puncta was quantitated using ImageJ. Bars indicate the mean. […] HEK-293 (Panel d) or HeLa (Panel e) cells were lysed in M-PER buffer (Thermo Scientific, 78501) with the addition of protease inhibitors (Roche, 11836153001) and phosphatase inhibitors (50 mM NaF, 10 mM β-glycerophosphate, 5 mM sodium pyrophosphate, 2 mM Na3VO4). Protein concentration of the lysate was measured by BCA Protein Assay kit (Pierce, 23227). […] Pronase (Roche, 10165921001) digestions were performed for 20 minutes at room temperature, and stopped by adding SDS loading buffer and immediately heating at 95° C. for 5 minutes (for Panel d) or 70° C. for 10 minutes (for Panel e). Samples were subjected to SDS-PAGE on 4-12% Bis-Tris gradient gel (Invitrogen, NP0322BOX) and Western blotted with specific antibodies against ATP5B (Santa Cruz, sc58618), mTOR (Cell Signaling Technology, 2972), or GAPDH (Ambion, AM4300). ImageJ was used to quantify the mTOR/GAPDH and ATP5B/GAPDH ratios.
# ATP synthase = biological target: T2, ATP synthase (Mus musculus, UniProt P56480); assay: ATP synthase enzyme inhibition kinetics; type: biochemical
# T2 construct: Mitochondria were isolated from mouse liver as described above; from tissue; host or cells: isolated mouse liver mitochondria
# Method: ATP synthesis enzyme inhibition kinetic analysis was performed using isolated mitochondria. Mitochondria were isolated from mouse liver as described above. The final mitochondrial pellet was resuspended in MAS buffer supplemented with 5 mM sodium ascorbate (Sigma, A7631) and 5 mM TMPD (Sigma, T7394).
# ATP synthesis was monitored by the increase in luminescence over time by a luminometer (Analyst HT, Molecular Devices). ATP synthase-independent ATP formation, derived from the oligomycin-insensitive luminescence, was subtracted as background. The initial velocity of ATP synthesis was calculated from the slope of the first 3 minutes of the reaction, before the velocity begins to decrease. Enzyme inhibition kinetics was analyzed by nonlinear regression least squares fit using GraphPad Prism.
# [1] = biological target: mitochondrial ATP synthase (Complex V) (Mus musculus, UniProt P56480); assay: Mice fed octyl α-KG in chow; heart mitochondria OCR
# Method: The mice were sacrificed, hearts harvested, and mitochondria isolated. The oxygen consumption rate (OCR) was measured using a Seahorse XF-24 Analyzer (Seahorse Bioscience).
# mammalian cells = assay: Oxygen consumption rate in cells (Seahorse XF-24); type: cell-based; conditions: treated cells, 1 hour
# Method: OCR measurements were made using a Seahorse XF-24 analyzer (Seahorse Bioscience) (Wu, et al. Am J Physiol Cell Physiol 292, C125-136 (2007)). […] Oxygen consumption rates were measured 3 times under basal conditions and normalized to protein concentration per well. Statistical analysis was performed using GraphPad Prism.
# U87 cells [2] = assay: Assay for ATP levels in U87 cells; type: cell-based, human; conditions: mitochondrial oxidative phosphorylation conditions, 2 hours
# Method: For 2-HG experiments, U87 cells were seeded in 96-well plates at 2×10^4 cells per well and treated with indicated compound for 2 hours in triplicate. ATP levels were measured using the CellTiter-Glo luminescent ATP assay (Promega, G7572); luminescence was read using Analyst HT (Molecular Devices). […] Statistical analysis was performed using GraphPad Prism (unpaired t-test).
# [3] = system: neonatal rat cardiomyocytes; assay: Isoproterenol/phenylephrine-induced hypertrophy in isolated neonatal cardiomyocytes; type: cell-based; conditions: 200 μM
# Method: Cardiomyocytes of neonatal rats were isolated by collagenase digestion and cultured overnight in DMEM containing 10% fetal calf serum (FCS), and then culture medium was changed to serum-free high glucose insulin-transferrin-sodium selenite (ITS). Hypertrophy of cardiomyocytes was induced by treating the cells with 1 mM isoproterenol (ISO) or phenylephrine (PE) for 48 hours.
# U87 cells [4] = assay: Cell growth and viability assays in U87 cells; type: cell-based, human
# Method: IDH1(R132H) mutant or IDH1(WT) expressing U87 cells were as reported (Li, et al. Neuro Oncol 15, 57-68). […] All the cells were cultured at 37° C. and 5% CO2. Cells were transfected with indicated siRNA using Thermo Scientific DharmaFECT Transfection Reagent 1 by following the manufacturer's instructions.
# Cells were seeded in 12-well plates and after overnight incubation were treated with indicated concentrations of each compound. After harvesting, cells were stained by Acridine Orange (AO) and DAPI. Cell number and viability were measured based on AO and DAPI fluorescence measured by NC3000 (Chemometec) following the manufacturer's instructions.
# mTOR [5] = assay: Assay for mammalian TOR (mTOR) pathway activity; type: cell-based, human; conditions: U87 cells
# Excerpt: Specific antibodies used: P-S6K T389 (Cell Signaling Technology, 9234), S6K (Cell Signaling Technology, 9202S), P-4E-BP1 S65 (Cell Signaling Technology, 9451S), 4E-BP1 (Cell Signaling Technology, 9452S), P-AKT S473 (Cell Signaling Technology, 4060S), AKT (Cell Signaling Technology, 4691S), P-ULK1 S757 (Cell Signaling Technology, 6888), ULK1 (Cell Signaling Technology, 4773S), and GAPDH (Santa Cruz Biotechnology, 25778).
# ATP5B = biological target: T3, ATP5B (Homo sapiens, UniProt P06576); assay: DARTS (drug affinity responsive target stability) with Western blotting; type: binding; conditions: human cell lysates, Pronase digestion
# T3 construct: HeLa cells were lysed in M-PER buffer; endogenous in cells; host or cells: HeLa (alpha-KG); U87 (2-HG)
# T3 sequence (P06576 48-529): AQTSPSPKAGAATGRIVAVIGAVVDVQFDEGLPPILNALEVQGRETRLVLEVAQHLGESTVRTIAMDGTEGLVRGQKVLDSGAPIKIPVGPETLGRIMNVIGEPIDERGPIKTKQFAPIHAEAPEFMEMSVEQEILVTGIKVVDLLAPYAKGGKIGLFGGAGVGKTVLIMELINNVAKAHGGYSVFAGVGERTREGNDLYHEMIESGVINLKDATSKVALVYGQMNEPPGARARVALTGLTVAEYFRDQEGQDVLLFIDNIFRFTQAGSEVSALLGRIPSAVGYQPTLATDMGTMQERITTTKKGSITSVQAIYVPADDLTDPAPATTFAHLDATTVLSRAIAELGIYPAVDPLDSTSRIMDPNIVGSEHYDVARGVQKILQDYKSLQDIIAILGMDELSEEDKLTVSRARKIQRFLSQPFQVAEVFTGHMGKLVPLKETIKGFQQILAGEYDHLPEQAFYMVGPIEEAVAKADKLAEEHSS
# Method: Target identification using DARTS was conducted in accordance with methods know in the art. […] The resulting digests were separated by SDS-PAGE and visualized using SYPRO Ruby Protein Gel Stain (Invitrogen, S12000).
# GAPDH (Ambion, AM4300) was used as a negative control.
# For 2-HG experiments, DARTS was performed as described above.
# C. elegans [6] = assay: Oxygen consumption rate in living C. elegans; type: in vivo, Caenorhabditis elegans; conditions: worms, 8 mM, day 2 of adulthood
# Method: OCR was assessed on day 2 of adulthood. […] Oxygen consumption rates were measured 7 times under basal conditions and normalized to the number of worms counted per well. The experiment was repeated twice. Statistical analysis was performed using Microsoft Excel (t-test, two-tailed, two-sample unequal variance).
# C. elegans [7] = assay: Assay for ATP levels in C. elegans; type: in vivo, Caenorhabditis elegans; conditions: 8 mM; day 2, P=0.969; day 8, P=0.012
# Method: Assay for ATP levels in C. elegans. […] ATP levels were normalized to number of worms. Statistical analysis was performed using Microsoft Excel (t-test, two-tailed, two-sample unequal variance).
# ATP-2 = biological target: T4, ATP-2 (Caenorhabditis elegans, UniProt P46561); assay: DARTS using C. elegans lysate; type: binding; conditions: worm lysate
# T4 construct: from tissue; host or cells: lysate of whole wild-type C. elegans
# T4 sequence (P46561 whole entry): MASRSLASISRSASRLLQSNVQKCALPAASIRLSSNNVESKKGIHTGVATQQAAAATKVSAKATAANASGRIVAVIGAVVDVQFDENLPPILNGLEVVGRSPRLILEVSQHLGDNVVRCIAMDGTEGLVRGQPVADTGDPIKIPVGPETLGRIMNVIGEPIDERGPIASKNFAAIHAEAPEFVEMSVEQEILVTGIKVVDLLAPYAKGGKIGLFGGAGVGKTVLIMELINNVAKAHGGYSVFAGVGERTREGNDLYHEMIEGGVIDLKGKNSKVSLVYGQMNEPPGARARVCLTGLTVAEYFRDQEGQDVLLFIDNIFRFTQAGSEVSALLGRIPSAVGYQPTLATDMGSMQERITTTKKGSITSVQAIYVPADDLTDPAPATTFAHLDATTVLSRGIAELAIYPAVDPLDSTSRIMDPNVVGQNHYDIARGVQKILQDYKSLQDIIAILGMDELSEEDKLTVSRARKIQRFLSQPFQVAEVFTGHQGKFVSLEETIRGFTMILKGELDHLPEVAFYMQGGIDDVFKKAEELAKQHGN
# Method: For DARTS using C. elegans (FIG. 6, Panel a), wild-type animals of various ages were grown on NGM/OP50 plates, washed 4 times with M9 buffer, and immediately placed in the −80° C. freezer. […] All steps were performed on ice or at 4° C. to help prevent premature protein degradation. TNC buffer (50 mM Tris-HCl pH 8.0, 50 mM NaCl, 10 mM CaCl2) was added to the worm lysates.
# lactate dehydrogenase = assay: Coupling-enzyme control of SMP ATPase assay; type: biochemical; conditions: up to 10 mM, external ADP added
# Method: (§1) The SMP ATPase activity was assayed using the Complex V Activity Buffer as above. The production of ADP is coupled to the oxidation of NADH to NAD^+ through pyruvate kinase and lactate dehydrogenase. […] The absorbance decrease of NADH at 340 nm correlates to ATPase activity.
# pyruvate kinase = assay: Coupling-enzyme control of SMP ATPase assay; type: biochemical; conditions: up to 10 mM, external ADP added
# Method: as §1
# Complex IV = system: T5, Complex IV; assay: Complex IV activity assay (MitoTox OXPHOS kit); type: biochemical, bovine; conditions: relative to vehicle (H2O)
# T5 construct: from bovine heart mitochondria; purchased Abcam ab109906; host or cells: bovine heart mitochondria
# Method: Complex IV activity was assayed using the MitoTox OXPHOS Complex IV Activity Kit (Abcam, ab109906).
# mTOR [8] = biological target: T6, mTOR (Homo sapiens, UniProt P42345); assay: DARTS for TOR in HEK-293 / HeLa lysates; type: binding; conditions: HEK-293 or HeLa lysates
# T6 construct: HEK-293 (Panel d) or HeLa (Panel e) cells were lysed in M-PER buffer; endogenous in cells; host or cells: HEK-293; HeLa
# Excerpt: Number of GFP::LGG-1 containing puncta was quantitated using ImageJ. Bars indicate the mean. […] ImageJ was used to quantify the mTOR/GAPDH and ATP5B/GAPDH ratios.
compound,measurement,setting,value
"CCCCCCCCOC(=O)C(=O)CCC(=O)O [octyl α-KG, octyl α-ketoglutarate]",ATP levels,WI-38 cells,reduced
same,reversibility of ATP synthase inhibition,"Complex V; α-KG released from octyl α-KG, not shown",reversible
same,cardiac ejection fraction,DBA2/J female mice,53.8%±2.3
same,P-AMPK (T172),AMPK,increased
same,apparent Vmax of ATP synthase,"ATP synthase; 200 μM octyl α-KG, octanol vehicle 53.9",26.7
same,mode of ATP synthase inhibition,ATP synthase; α-KG released from octyl α-KG,uncompetitive inhibition
same,state 3 respiration of heart mitochondria,"[1]; mice fed 1.5 mg/g body weight in chow for one week, versus octanol control mice",lower
same,physiological or behavioral abnormality,"[1]; mice, 1.5 mg/g body weight in chow, after 5 days feeding",no abnormality
same,oxygen consumption rates,mammalian cells,Decreased
same,ATP content,U87 cells [2],decreased
same,ISO- and PE-induced overexpression of ANF and BNP,[3],suppressed
same,ISO-induced hypertrophy,"[3]; 1 mM isoproterenol, 48 hours",completely abolished
same,viability upon glucose starvation,U87 cells [4]; 400 μM and 800 μM,decreased
same,growth rate,"U87 cells [4]; glucose medium, to a lesser extent, not shown",reduced
same,growth rate,"U87 cells [4]; glucose-free medium, 400 μM and 800 μM",decreased growth rate
same,phosphorylation of S6K (T389),mTOR [5],decreased
same,phosphorylation of mTOR substrates,mTOR [5],decreased
"O=C(O)CCC(=O)C(=O)O [α-KG, α-ketoglutarate]",binding to ATP5B by DARTS,ATP5B,binding specifically
same,activity of Complex V,Complex V; bovine heart mitochondria,inhibits
same,oxygen consumption rates,C. elegans [6],Decreased
same,ATP levels,C. elegans [7],reduced
same,ATP-2 protein protection from Pronase digestion,ATP-2,protection
same,activity of lactate dehydrogenase,lactate dehydrogenase,did not affect
same,activity of pyruvate kinase,pyruvate kinase,did not affect
same,Complex IV activity,Complex IV,does not affect
same,binding to TOR by DARTS,mTOR [8],does not bind
